Measurements as given in US7612075B2, “Substituted oxoazaheterocyclyl compounds” (Aventis Pharmaceuticals Inc., priority 1998, dated 2009).
Counter-ions that a name gives are not always drawn. No end group written: not given here.

Experiments:
rabbit carotid artery = rabbit carotid artery air-drying injury model, after vascular injury; cited from earlier work
[1] = system: human cultured vascular smooth muscle cells; details: cited from earlier work
[2] = system: rat cultured vascular smooth muscle cells; details: cited from earlier work

Molecule	melting point [°C]	also measured
N=C(N)c1ccc(CN2CCN(Cc3nc4ccc(Cl)cc4[nH]3)CC2=O)cc1 (as salt: salt) [Example 122, 4-[4-(6-Chloro-1H-benzoimidazol-2-ylmethyl)-2-oxo-piperazin-1-ylmethyl]-benzamidine]	91 to 95	–
C[C@H]1CN(Cc2ccc3c(N)ncnc3c2)C(=O)[C@H](C)N1C(=O)C=Cc1ccc(Cl)s1 (as salt: salt) [Example 669, (3S, 5S)-1-(4-Amino-quinazolin-7-ylmethyl)-4-[3-(5-chloro-thiophen-2-yl)-acryloyl]-3,5-dimethyl-piperazin-2-one]	116 to 120	–
N=C(N)c1ccc(CN2CCC(Cc3nc4ccc(Cl)cc4[nH]3)CC2=O)cc1 (stereo not drawn) (as salt: salt) [Example 815, 4-[4-(6-Chloro-1H-benzoimidazol-2-ylmethyl)-2-oxo-piperidin-1-ylmethyl]-benzamidine]	105 to 110	–
C[C@@H]1CN(Cc2ccc3c(N)ncnc3c2)C(=O)[C@H](C)N1CC=Cc1ccc(Cl)s1 (as salt: trifluoroacetic acid salt) [Example 665, (3S,5R)-1-(4-Amino-quinazolin-7-ylmethyl)-4-[3-(5-chloro-thiophen-2-yl)-allyl]-3,5-dimethyl-piperazin-2-one]	67 to 70	–
CC(=N)N1CC[C@H](Oc2ccc([C@H](Cc3ccc4ccc(C(=N)N)cc4c3)C(=O)O)cc2)C1 [DX-9065a]	–	neointimal proliferation (rabbit carotid artery): less neointimal proliferation
C[C@H]1CN(Cc2ccc3c(N)ncnc3c2)C(=O)[C@H](C)N1S(=O)(=O)C=Cc1ccc(Cl)s1 [Example 667, (3S, 5S)-1-(4-Amino-quinazolin-7-ylmethyl)-4-[2-(5-chloro-thiophen-2-yl)-ethenesulfonyl]-3,5-dimethyl-piperazin-2-one]	218 to 221	–
C[C@H]1CN(Cc2ccc3c(N)ncnc3c2)C(=O)[C@H](C)N1S(=O)(=O)c1cc2ccc(Cl)cc2s1 [Example 668, (3S, 5S)-1-(4-Amino-quinazolin-7-ylmethyl)-4-(6-chloro-benzo[b]thiophen-2-sulfonyl)-3,5-dimethyl-piperazin-2-one]	224 to 226	–
Nc1ncnc2cc(CN3CCC(Cc4nc5ccc(Cl)cc5[nH]4)CC3=O)ccc12 (stereo not drawn) [Example 816, 1-(4-Amino-quinazolin-7-ylmethyl)-4-(6-chloro-1H-benzoimidazol-2-ylmethyl)-piperidin-2-one]	128 to 132	–
Nc1n[nH]c2cc(CN3CCN(Cc4cc5ccc(Cl)cc5s4)CC3=O)ccc12 [Example 874, 1-(3-Amino-1H-indazol-6-ylmethyl)-4-(6-chloro-benzo[b]thiophen-2-ylmethyl)-piperazin-2-one]	246 to 248	–
Nc1n[nH]c2cc(CN3CCN(S(=O)(=O)c4cc5ccc(Cl)cc5s4)CC3=O)ccc12 [Example 876, 1-(3-Amino-1H-indazol-6-ylmethyl)-4-(6-chloro-benzo[b]thiophene-2-sulfonyl)-piperazin-2-one]	274 to 276	–
TAP: named only as TAP; cited (F Bono, et al.) where the mitogenic effect of Factor Xa is said to depend on its enzymatic activity (YNRLCIKPRDWIDECDSNEGGERAYFRNGKGGCDSFWICPEDHTGADYYSSYRDCFNACI; ends and bridges not checked; cysteine pairing not given here; UniProt P17726 1-60, looked up)	–	mitogenesis of human cultured vascular smooth muscle cells [1]: inhibited; mitogenesis of rat cultured vascular smooth muscle cells [2]: inhibited
